Structures are written as SMILES. In brackets after ≈: the same amount, converted by molar mass.

As usually defined, the IC50 is the midpoint of a concentration-inhibition curve. Read a high IC50 as weaker potency.

In the assay the target is T1, α-glucosidase.
T1 construct: gene MAL12; enzyme preparation
Briefly: p-NPG hydrolysis, absorbance […] nm. In kind it is biochemical. The settings on record: p-NPG (50 μL of 3 mM), potassium phosphate pH 7.4, 37 °C, 1 h.
`Oc1cc(O)c2c(c1)O[C@H](c1ccc(O)c(O)c1)[C@H](O)C2` [Epicatechin] registered an IC50 greater than 5000 µg/mL.

For the compound `O=c1cc(-c2ccc(O)cc2)oc2cc(O)cc(O)c12` [Apigenin], the “IC50” value is 250.8 µg/mL (≈ 928 µM).

In the case of `O=c1cc(-c2ccc(O)c(O)c2)oc2cc(O)cc(O)c12` [Luteolin], the “IC50” value is 190.4 µg/mL (≈ 665 µM).

`COc1cc(-c2oc3cc(O)cc(O)c3c(=O)c2O)ccc1O` [Isorhamnetin]: the “IC50” value was 158.8 µg/mL (≈ 502 µM).

These data come from article PMC9783571, “Component Characterization, In Vitro Activities and Molecular Mechanism of Cydonia oblonga Mill. against Diabetic” (Pharmaceuticals, 2022).
